Measured values reported in ChEMBL document CHEMBL1201862, “PubChem BioAssay data set” (2004).
Activity calls are given as the source filed them.

What was measured:
[1] = target: Muscarinic acetylcholine receptor M1 (Rattus norvegicus, UniProt P08482); assay: rat M1 positive allosteric modulator potency, dose response, cell-based, calcium mobilization, CHO-K1, ACh EC20 (AID 2425); assay type: functional
[2] = cytotoxicity toward NIH3T3 fibroblasts, dose response, counter-screen, cell-based, ATP luminescence, mouse fibroblasts (AID 2010); assay type: functional;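 note: cells exposed to compound for about 90 hours before reading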
HEK293 = assay: inhibitors of LMP1-driven NF-kB reporter, dose response, cell-based, HEK293, luciferase, cherry-pick (AID 588343); assay type: functional; details: Homo sapiens
[3] = inhibitors of intracellular T. cruzi replication, confirmation, NIH3T3 host cells, beta-gal luminescence (AID 2044); assay type: functional, cell-based;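 note: intracellular parasites grown in NIH/3T3 mouse fibroblasts as host cells; luminescent beta-galactosidase reporter signal from transgenic T. cruzi replicating inside host cells; inhibitors lower the luminescence signal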
[4] = target: ATP-binding cassette sub-family B member 6 (Homo sapiens, UniProt Q9NP58); assay: ABCB6 transporter inhibitors, dose response, K562-ABCB6 cells, flow cytometry, cherry pick 1 (AID 623955); assay type: functional; details: read-out: EC50_MICROM
Chain of ATP-binding cassette sub-family B member 6 (Q9NP58 whole entry): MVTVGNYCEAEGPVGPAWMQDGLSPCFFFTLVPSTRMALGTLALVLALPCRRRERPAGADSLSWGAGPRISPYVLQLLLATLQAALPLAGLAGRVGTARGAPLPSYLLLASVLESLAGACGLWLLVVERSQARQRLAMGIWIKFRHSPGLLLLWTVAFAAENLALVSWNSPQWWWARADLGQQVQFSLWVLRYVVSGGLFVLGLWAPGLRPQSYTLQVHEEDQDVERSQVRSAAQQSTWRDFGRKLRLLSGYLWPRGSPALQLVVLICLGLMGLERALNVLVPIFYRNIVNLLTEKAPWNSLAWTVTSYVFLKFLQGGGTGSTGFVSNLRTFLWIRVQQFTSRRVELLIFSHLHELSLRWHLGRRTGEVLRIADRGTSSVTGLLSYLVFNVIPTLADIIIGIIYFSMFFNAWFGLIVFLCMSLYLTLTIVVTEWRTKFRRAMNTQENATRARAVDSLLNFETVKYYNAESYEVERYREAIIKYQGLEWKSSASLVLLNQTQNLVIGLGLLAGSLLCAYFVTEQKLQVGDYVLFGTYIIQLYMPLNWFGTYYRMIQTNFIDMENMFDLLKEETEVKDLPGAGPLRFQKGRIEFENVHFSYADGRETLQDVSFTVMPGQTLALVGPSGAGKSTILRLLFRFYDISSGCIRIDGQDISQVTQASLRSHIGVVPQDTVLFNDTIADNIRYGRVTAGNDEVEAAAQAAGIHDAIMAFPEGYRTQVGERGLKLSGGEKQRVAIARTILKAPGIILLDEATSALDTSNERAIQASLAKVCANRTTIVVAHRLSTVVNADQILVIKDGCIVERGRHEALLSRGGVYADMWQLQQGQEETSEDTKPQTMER

[5] = Luminescent dose response cell-based high throughput screening assay for inhibitors of the Janus kinase 2 mutant JAK2V617F. [Related pubchem assays: 1446 (Primary screen.), 1521 (Confirmation assay.), 1486 (Counter screen.)]; assay type: functional
[6] = target: Solute carrier family 12 member 2/member 5 (Homo sapiens, UniProt P55011+Q9H2X9); assay: KCC2 and NKCC1 inhibition by rubidium flux, cell-based, NKCC1 counter-screen (AID 1734); assay type: functional, HEK293
[7] = A High Throughput Confirmatory Assay used to Identify Novel Compounds that Inhibit Mycobacterium Tuberculosis in the absence of Glycerol.; assay type: functional
[8] = target: Bifunctional protein GlmU (Mycobacterium tuberculosis, UniProt P9WMN3); assay: Inhibitors of Mycobacterial Glucosamine-1-phosphate acetyl transferase (GlmU). Secondary screen.; design: species or system Mycobacterium tuberculosis H37Rv
Chain of Bifunctional protein GlmU (P9WMN3 whole entry): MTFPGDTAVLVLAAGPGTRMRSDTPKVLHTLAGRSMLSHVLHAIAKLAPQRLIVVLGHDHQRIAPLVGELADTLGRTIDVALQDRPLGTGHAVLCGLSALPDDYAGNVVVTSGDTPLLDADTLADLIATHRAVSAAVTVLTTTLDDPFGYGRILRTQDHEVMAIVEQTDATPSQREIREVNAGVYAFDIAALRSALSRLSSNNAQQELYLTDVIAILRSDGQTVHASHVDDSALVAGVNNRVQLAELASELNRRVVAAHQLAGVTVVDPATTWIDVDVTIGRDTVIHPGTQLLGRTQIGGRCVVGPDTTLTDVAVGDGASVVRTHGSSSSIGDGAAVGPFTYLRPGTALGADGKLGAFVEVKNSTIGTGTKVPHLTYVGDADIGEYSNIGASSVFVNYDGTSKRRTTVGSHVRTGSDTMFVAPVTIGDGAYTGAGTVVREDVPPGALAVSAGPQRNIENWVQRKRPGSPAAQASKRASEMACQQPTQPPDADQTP

[9] = target: Induced myeloid leukemia cell differentiation protein Mcl-1 (Homo sapiens, UniProt Q07820); assay type: functional
Chain of Induced myeloid leukemia cell differentiation protein Mcl-1 (Q07820 whole entry): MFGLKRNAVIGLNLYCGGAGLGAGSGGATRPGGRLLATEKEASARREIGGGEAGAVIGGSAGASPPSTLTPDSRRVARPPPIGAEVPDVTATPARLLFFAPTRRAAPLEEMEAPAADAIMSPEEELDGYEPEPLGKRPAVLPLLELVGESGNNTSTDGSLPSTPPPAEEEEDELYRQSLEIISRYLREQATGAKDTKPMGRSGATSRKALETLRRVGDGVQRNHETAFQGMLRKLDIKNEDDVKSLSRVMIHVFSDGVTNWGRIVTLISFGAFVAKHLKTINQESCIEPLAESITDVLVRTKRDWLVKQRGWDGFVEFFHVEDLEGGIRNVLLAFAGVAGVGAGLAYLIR

Galanin receptor type 2 = Galanin receptor type 2 (Homo sapiens, UniProt O43603); assay: Dose Response cell-based high-throughput screening assay to identify antagonists of galanin receptor 2 (GALR2). [Related pubchem assays: 828, 866 ]; assay type: functional
Chain of Galanin receptor type 2 (O43603 whole entry): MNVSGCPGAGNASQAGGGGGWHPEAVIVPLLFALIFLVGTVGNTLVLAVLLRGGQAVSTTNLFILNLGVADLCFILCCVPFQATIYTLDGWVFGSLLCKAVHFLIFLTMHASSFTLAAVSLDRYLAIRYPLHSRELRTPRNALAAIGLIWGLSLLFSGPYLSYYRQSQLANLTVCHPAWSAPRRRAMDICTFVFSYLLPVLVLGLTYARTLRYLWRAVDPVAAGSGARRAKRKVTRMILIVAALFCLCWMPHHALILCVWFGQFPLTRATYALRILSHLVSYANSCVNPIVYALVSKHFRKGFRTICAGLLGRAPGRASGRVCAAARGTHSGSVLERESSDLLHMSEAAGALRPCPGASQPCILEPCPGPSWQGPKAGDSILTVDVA

[10] = target: 5-hydroxytryptamine receptor 1A (Homo sapiens, UniProt P08908); assay type: functional
Chain of 5-hydroxytryptamine receptor 1A (P08908 whole entry): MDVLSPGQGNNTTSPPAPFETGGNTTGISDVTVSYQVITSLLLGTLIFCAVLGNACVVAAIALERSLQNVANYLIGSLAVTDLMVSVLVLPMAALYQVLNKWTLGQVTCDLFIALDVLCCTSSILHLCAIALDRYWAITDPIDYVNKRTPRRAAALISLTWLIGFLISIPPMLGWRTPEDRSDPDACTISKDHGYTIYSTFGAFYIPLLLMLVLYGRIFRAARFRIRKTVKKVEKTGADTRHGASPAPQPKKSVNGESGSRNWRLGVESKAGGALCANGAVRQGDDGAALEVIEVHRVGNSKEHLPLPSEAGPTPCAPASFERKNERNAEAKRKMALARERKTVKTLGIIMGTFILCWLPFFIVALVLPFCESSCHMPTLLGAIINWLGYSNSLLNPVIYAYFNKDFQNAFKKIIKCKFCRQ

Chain of Muscarinic acetylcholine receptor M1 (P08482 whole entry): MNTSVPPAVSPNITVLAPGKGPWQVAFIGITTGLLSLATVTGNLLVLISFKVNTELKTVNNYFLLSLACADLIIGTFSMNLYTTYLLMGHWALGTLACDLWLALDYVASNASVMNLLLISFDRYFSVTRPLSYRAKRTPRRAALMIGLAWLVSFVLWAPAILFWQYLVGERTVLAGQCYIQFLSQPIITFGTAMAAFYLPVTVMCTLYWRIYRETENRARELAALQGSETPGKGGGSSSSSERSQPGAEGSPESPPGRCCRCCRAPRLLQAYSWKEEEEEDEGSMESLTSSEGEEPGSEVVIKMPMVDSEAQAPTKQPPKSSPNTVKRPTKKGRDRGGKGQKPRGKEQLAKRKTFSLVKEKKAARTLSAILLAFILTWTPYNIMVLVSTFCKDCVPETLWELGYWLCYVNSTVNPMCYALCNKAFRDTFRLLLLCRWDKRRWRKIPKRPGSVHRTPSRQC

With Cn1cc(-c2ccc(CN3C(=O)C(=O)c4cccc(F)c43)c(F)c2)cn1 the EC50 [1] was 2.32 µM (active).

For CCN(CC)S(=O)(=O)c1cccc(N2C(=O)/C(=C\Nc3ccccc3C(=O)O)c3ccccc3C2=O)c1, the EC50 [2] was > 60 µM (not active), the AC50 (HEK293) was 0.167 µM (active) and the EC50 [3] was 13.7 µM (active). The EC50 [4] was 0.21 µM (active) and the IC50 [5] was > 40 µM (not active).

In the case of O=C(Nc1ccc(S(=O)(=O)NCc2ccccc2)cc1)c1ccccc1[N+](=O)[O-], the IC50 [6] is reported as 5.1 µM (active).

In the case of Cc1ccc(S(=O)(=O)NCc2ccc(C(=O)NCCCN3CCC(Cc4ccccc4)CC3)cc2)cc1, the IC50 [7] is reported as > 100 µM (active).

In the case of O=c1c(C(c2ccccn2)c2c(O)oc3ccccc3c2=O)c(O)oc2ccccc12, the IC50 [8] is reported as 152 µM (active).

For CCCOc1[nH]cnc2c3ccccc3nc1-2, the IC50 [9] was 19.6 µM (not active) and the IC50 (Galanin receptor type 2) was > 42 µM (not active).

With Cc1[nH]c2c(Cl)cccc2c1CCN the EC50 [10] was > 50 µM (not active).
